Measurements as given in patent publication US20170334877A1, “REVAPRAZAN HYDROCHLORIDE POLYMORPHS AND PREPARATION METHOD THEREFOR” (JIANGSU TASLY DIYI PHARMACEUTICAL CO., LTD., priority 2014, published 2017).
Structures can show the parent of a compound that is named as a salt.

Assays:
Format in all cases: physicochemical
[1] = High humidity test (25° C., relative humidity 75±5%); conditions: for Appearance color / Purity (%) / Relevant substances / Weight gain upon moisture absorption (%): 25° C., RH 75±5%; for Weight gain upon moisture absorption (in words): high humidity condition; for Stability (conclusion in words): high humidity, no obvious changes in appearance color, purity, relevant substances
Procedure: Revaprazan hydrochloride crystalline form I is placed in an incubator of 25° C. (relative humidity of 75±5%), and is sampled on the 5th day and 10th day for detection. Revaprazan hydrochloride crystalline form II is placed in an incubator of 25° C. (relative humidity of 75±5%), and is sampled on the 5th day and 10th day for detection. Revaprazan hydrochloride polymorph III is placed in an incubator of 25° C. (relative humidity of 75±5%), and is sampled on the 5th day and the 10th day for detection. Revaprazan hydrochloride crystalline form IV is placed in an incubator of 25° C. Revaprazan hydrochloride crystal form 4 is placed in an incubator of 25° C. (the relative humidity is 75±5%), and is sampled on the 5th day and the 10th day for detection.

[2] = Light illumination test (intense light, 4500±500 Lx); conditions: for Stability (conclusion in words): intense light illumination, no obvious changes in appearance color, loss on drying, purity, relevant substances; for Appearance color / Loss on drying (%) / Purity (%) / Relevant substances: light 4500±500 Lx; for Loss on drying (%) / Purity (%) / Relevant substances: hydrochloride
Description: Revaprazan hydrochloride crystalline form I is irradiated under such a condition that the light intensity is 4500±500 Lx, and is sampled on the 5th day and 10th day for detection, and the results are shown in Table 1. Revaprazan hydrochloride crystalline form II is irradiated under the condition that the light intensity is 4500±500Lx, and is sampled on the 5th day and 10th day for detection. Revaprazan hydrochloride polymorph III is irradiated under such a condition that the light intensity is 4500±500Lx, and is sampled on the 5th day and 10th day for detection. Revaprazan hydrochloride […] is irradiated under such a condition that the light intensity is 4500±500Lx, and is sampled on the 5th day and the 10th day for detection. Revaprazan hydrochloride crystalline form V is irradiated under the light intensity condition of 4500±500Lx; and is sampled on the 5th day and 10th day for detection.

[3] = High temperature test (60° C. incubator); conditions: for Appearance color / Loss on drying (%) / Purity (%) / Relevant substances: 60° C., hydrochloride; for Stability (conclusion in words): high temperature, no obvious changes in appearance color, loss on drying, purity, relevant substances
Procedure: Revaprazan hydrochloride crystalline form I is placed in a 60° C. incubator, and is sampled on the 5th day and 10th day for detection, and the results are shown in Table 2. Revaprazan hydrochloride crystalline form II is placed in a 60° C. incubator, and is sampled on the 5th day and 10th day for detection, and the results are shown in Table 6. Revaprazan hydrochloride polymorph III is placed in an incubator of 60° C., and is sampled on the 5th day and the 10th day for detection. Revaprazan hydrochloride crystalline form IV is placed in an incubator of 60° C., and is sampled on the 5th day and the 10th day for detection. Revaprazan hydrochloride crystal form 4 is placed in an incubator of 60° C.; and is sampled on the 5th day and the 10th day for detection, and the results are shown in Table 23.

[4] = Accelerated test (40±2° C., relative humidity 75±5%, 6 months, sealed polyethylene film bag); conditions: for Appearance color / Purity (%) / Relevant substances: 40±2° C., RH 75±5%; for Purity (%) / Relevant substances: hydrochloride; for Stability (conclusion in words): accelerated test, no obvious changes in appearance color, purity, relevant substances
Procedure: Revaprazan hydrochloride crystalline form I is sealed in a polyethylene film bag, is placed for 6 months under the conditions that the temperature is 40±2° C. and the relative humidity is 75±5%, and is respectively sampled at the end of the 1st Month, the 2nd Month, the 3rd Month and the 6^thMonth for detection; and the results are shown in Table 4. Revaprazan hydrochloride crystalline form II is sealed in a polyethylene film bag and is placed for 6 months under the conditions that the temperature is 40±2° C. and the relative humidity is 75±5%, and is respectively sampled at the end of the 1st Month, the 2nd Month, the 3rd Month and the 6th Month for detection; and the results are shown in Table 8. Revaprazan hydrochloride crystalline form III is sealed in a polyethylene film bag, is placed for 6 months under the conditions that the temperature is 40±2° C. and the relative humidity is 75±5%, and is sampled at the end of the 1st Month, the 2nd Month, the 3rd Month and the 6th Month for detection. Revaprazan hydrochloride crystalline form IV is sealed in a polyethylene film bag, is placed for 6 months under the conditions that the temperature is 40±2° C. and the relative humidity is 75±5%, and is sampled at the end of the 1st Month, the 2nd Month, the 3rd Month and the 6th Month for detection. Revaprazan hydrochloride crystalline form V is sealed in a polyethylene film bag and is placed for 6 months under the condition that the temperature is 40±2° C. and the relative humidity is 75±5%, and is sampled at the end of the 1st month, the 2nd month, the 3rd month and the 6th month for detection, and the results are shown in Table 20.

[5] = 5th day, listed as revaprazan hydrochloride polymorph III
[6] = 10th day, listed as revaprazan hydrochloride polymorph III
[7] = Day 0, listed as revaprazan hydrochloride polymorph III

Cc1nc(Nc2ccc(F)cc2)nc(N2CCc3ccccc3C2C)c1C (single isomer, unassigned) [revaprazan hydrochloride crystalline form III]
Appearance color ([1]; 5th day): White powder | Purity (%) ([1]; 5th day, hydrochloride): 99.92% | Relevant substances ([1]; 5th day, hydrochloride): Undetected | Weight gain upon moisture absorption (%) ([1]; 5th day, hydrochloride): 0.47% | Appearance color ([1]; 10th day): White powder | Purity (%) ([1]; 10th day, hydrochloride): 99.94% | Relevant substances ([1]; 10th day, hydrochloride): Undetected | Weight gain upon moisture absorption (%) ([1]; 10th day, hydrochloride): 0.59% | Appearance color ([1]; Day 0): White powder | Weight gain upon moisture absorption (%) ([1]; Day 0): 0% | Purity (%) ([1]; Day 0, hydrochloride): 99.95% | Relevant substances ([1]; Day 0, hydrochloride): Undetected | Weight gain upon moisture absorption (in words) [1]: slight weight gain | Stability (conclusion in words) [1]: stable | Stability (conclusion in words) [2]: stable | Appearance color ([2]; 5th day): White powder | Loss on drying (%) [2, 5]: 0.25% | Purity (%) [2, 5]: 99.92% | Relevant substances [2, 5]: Undetected | Appearance color ([2]; 10th day): White powder | Loss on drying (%) [2, 6]: 0.29% | Purity (%) [2, 6]: 99.95% | Relevant substances [2, 6]: Undetected | Appearance color ([2]; Day 0): White powder | Loss on drying (%) [2, 7]: 0.28% | Purity (%) [2, 7]: 99.95% | Relevant substances [2, 7]: Undetected | Appearance color [3, 5]: White powder | Loss on drying (%) [3, 5]: 0.26% | Purity (%) [3, 5]: 99.94% | Relevant substances [3, 5]: Undetected | Appearance color [3, 6]: White powder | Loss on drying (%) [3, 6]: 0.26% | Purity (%) [3, 6]: 99.92% | Relevant substances [3, 6]: Undetected | Appearance color [3, 7]: White powder | Loss on drying (%) [3, 7]: 0.22% | Purity (%) [3, 7]: 99.95% | Relevant substances [3, 7]: Undetected | Stability (conclusion in words) [3]: stable | Appearance color ([4]; 1st month): White powder | Purity (%) ([4]; 1st month): 99.92% | Relevant substances ([4]; 1st month): Undetected | Appearance color ([4]; 2nd month): White powder | Purity (%) ([4]; 2nd month): 99.91% | Relevant substances ([4]; 2nd month): Undetected | Appearance color ([4]; 3rd month): White powder | Purity (%) ([4]; 3rd month): 99.93% | Relevant substances ([4]; 3rd month): Undetected | Appearance color ([4]; 6th month): White powder | Purity (%) ([4]; 6th month): 99.95% | Relevant substances ([4]; 6th month): Undetected | Appearance color ([4]; Month 0): White powder | Purity (%) ([4]; Month 0): 99.95% | Relevant substances ([4]; Month 0): Undetected | Stability (conclusion in words) [4]: stable

Cc1nc(Nc2ccc(F)cc2)nc(N2CCc3ccccc3C2C)c1C (single isomer, unassigned) [revaprazan hydrochloride crystalline form II]
Appearance color ([1]; 5th day): White powder | Purity (%) ([1]; 5th day, hydrochloride): 99.93% | Relevant substances ([1]; 5th day, hydrochloride): Not detected | Weight gain upon moisture absorption (%) ([1]; 5th day, hydrochloride): 0.42% | Appearance color ([1]; 10th day): White powder | Purity (%) ([1]; 10th day, hydrochloride): 99.95% | Relevant substances ([1]; 10th day, hydrochloride): Not detected | Weight gain upon moisture absorption (%) ([1]; 10th day, hydrochloride): 0.64% | Appearance color ([1]; Day 0): White powder | Weight gain upon moisture absorption (%) ([1]; Day 0): 0% | Purity (%) ([1]; Day 0, hydrochloride): 99.94% | Relevant substances ([1]; Day 0, hydrochloride): Not detected | Weight gain upon moisture absorption (in words) [1]: slight weight gain | Stability (conclusion in words) [1]: stable | Stability (conclusion in words) [2]: stable | Appearance color ([2]; 5th day): White powder | Loss on drying (%) ([2]; 5th day): 0.26% | Purity (%) ([2]; 5th day): 99.97% | Relevant substances ([2]; 5th day): Not detected | Appearance color ([2]; 10th day): White powder | Loss on drying (%) ([2]; 10th day): 0.28% | Purity (%) ([2]; 10th day): 99.94% | Relevant substances ([2]; 10th day): Not detected | Appearance color ([2]; Day 0): White powder | Loss on drying (%) ([2]; Day 0): 0.25% | Purity (%) ([2]; Day 0): 99.94% | Relevant substances ([2]; Day 0): Not detected | Appearance color ([3]; 5th day): White | Loss on drying (%) ([3]; 5th day): 0.27% | Purity (%) ([3]; 5th day): 99.97% | Relevant substances ([3]; 5th day): Not detected | Appearance color ([3]; 10th day): White | Loss on drying (%) ([3]; 10th day): 0.29% | Purity (%) ([3]; 10th day): 99.95% | Relevant substances ([3]; 10th day): Not detected | Appearance color ([3]; Day 0): White | Loss on drying (%) ([3]; Day 0): 0.23% | Purity (%) ([3]; Day 0): 99.94% | Relevant substances ([3]; Day 0): Not detected | Stability (conclusion in words) [3]: stable | Appearance color ([4]; 1st month): White powder | Purity (%) ([4]; 1st month): 99.93% | Appearance color ([4]; 2nd month): White powder | Purity (%) ([4]; 2nd month): 99.95% | Appearance color ([4]; 3rd month): White powder | Purity (%) ([4]; 3rd month): 99.96% | Appearance color ([4]; 6th month): White powder | Purity (%) ([4]; 6th month): 99.95% | Appearance color ([4]; Month 0): White powder | Purity (%) ([4]; Month 0): 99.94% | Stability (conclusion in words) [4]: stable
